Test results reported in US8183238B2, “Bicyclic and tricyclic compounds as KAT II inhibitors” (priority 2009, dated 2012).
Where a name gives a salt, the structure may show the parent alone. Read-outs that look alike come from different tables or passages of the source.

Target: human KAT II (hKAT II) enzyme (Homo sapiens, UniProt Q8N5Z0)
Assay: KAT II Inhibition Spectra Assay
Format: biochemical
Details: hKAT II, decrease in OD370, 37° C., 15-20 h, read-out: KATII IC50
Protocol: Formation of kynurenic acid (KYNA) is indirectly assessed by a decrease in light absorbance at 370 nm (OD370) as the L-kynurenine (KYN) substrate is converted by the human KAT II (hKAT II) enzyme into KYNA. An inhibitor would therefore inhibit the decrease in OD370.
The protocol was performed by placing the following reagents into a Costar 384 well black plate (30 μL total assay volume/well): • 10 μL of 3× concentrated compound; • 10 μL of 3× concentrated substrate mix (BGG (Sigma G-5009); 3 mM L-Kynurenine in 150 mM Tris Acetate (Sigma K3750); 3 mM α-ketoglutaric acid in 150 mM Tris Acetate (Sigma K2010); and 210 μM pyridoxal 5-phosphate (PLP) in 150 mM Tris Acetate (Sigma 9255)); and • 10 μL of 3× concentrated enzyme (15 nM enzyme in 150 mM Tris Acetate with 0.3% bovine serum).
Plates were sealed and incubated at 37° C. for 15-20 h before reading OD370 on a SpectraMax Plus plate reader. IC50s were generated by comparing the efficacy of compounds across a concentration range to inhibit a reduction in the OD370 value relative to assay wells with DMSO added in place of concentrated compound.

Chain of human KAT II (hKAT II) enzyme (Q8N5Z0 30-425): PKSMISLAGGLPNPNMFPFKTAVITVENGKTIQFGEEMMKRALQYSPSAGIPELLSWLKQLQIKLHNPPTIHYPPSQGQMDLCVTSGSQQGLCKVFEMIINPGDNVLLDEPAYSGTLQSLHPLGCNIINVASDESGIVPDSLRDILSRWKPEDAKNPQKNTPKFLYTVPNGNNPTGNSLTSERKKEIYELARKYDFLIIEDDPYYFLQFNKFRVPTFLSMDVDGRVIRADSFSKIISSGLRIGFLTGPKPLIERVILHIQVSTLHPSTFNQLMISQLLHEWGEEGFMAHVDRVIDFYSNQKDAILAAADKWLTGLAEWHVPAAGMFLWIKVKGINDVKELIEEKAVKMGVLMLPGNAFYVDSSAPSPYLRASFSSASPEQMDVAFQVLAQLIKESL

Row | SMILES | IC50 (Table 6) [nM] | IC50 (Table 5) [nM]
1 | N#Cc1ccccc1-c1ccc2c(c1)N(O)C(=O)C(N)C2 (centres unmarked) [Example 62, 2-(3-amino-1-hydroxy-2-oxo-1,2,3,4-tetrahydroquinolin-7-yl)benzonitrile, trifluoroacetate salt] |  | 135
2 | NC1Cc2ccc(-c3cccc(F)c3F)cc2N(O)C1=O (centres unmarked) [Example 40, 3-amino-7-(2,3-difluorophenyl)-1-hydroxy-3,4-dihydroquinolin-2(1H)-one, trifluoroacetate salt] |  | 122
3 | NC1Cc2ccc(-c3ccco3)cc2N(O)C1=O (centres unmarked) [Example 51, 3-amino-7-(2-furyl)-1-hydroxy-3,4-dihydroquinolin-2(1H)-one, trifluoroacetate salt] |  | 101
4 | N[C@H]1Cc2ccc(OCc3ccccc3)cc2N(O)C1=O [Example 34] |  | 35.6
5 | NC1Cc2ccc(-c3ccc(F)c(F)c3)cc2N(O)C1=O (centres unmarked) [Example 44, 3-amino-7-(3,4-difluorophenyl)-1-hydroxy-3,4-dihydroquinolin-2(1H)-one, trifluoroacetate salt] |  | 118
6 | N#Cc1cccc2c1N(O)C(=O)C(N)C2 (centres unmarked) [Example 33] |  | 33
7 | Cc1ccc(-c2ccc3c(c2)N(O)C(=O)C(N)C3)cc1 (centres unmarked) [Example 39, 3-amino-1-hydroxy-7-(4-methylphenyl)-3,4-dihydroquinolin-2(1H)-one, trifluoroacetate salt] |  | 136
8 | NC1Cc2ccc(-c3cccc(OC(F)(F)F)c3)cc2N(O)C1=O (centres unmarked) [Example 38, 3-amino-1-hydroxy-7-[3-(trifluoromethoxy)phenyl]-3,4-dihydroquinolin-2(1H)-one, trifluoroacetate salt] |  | 133
9 | CCOc1ccccc1-c1ccc2c(c1)N(O)C(=O)C(N)C2 (centres unmarked) [Example 57, 3-amino-7-(2-ethoxyphenyl)-1-hydroxy-3,4-dihydroquinolin-2(1H)-one, trifluoroacetate salt] |  | 102
10 | N[C@H]1Cc2cc(OC(F)(F)F)ccc2N(O)C1=O [Example 32] |  | 35.9
11 | N[C@H]1Cc2cc(-c3ccccc3F)ccc2N(O)C1=O [Example 136, (3S)-3-amino-6-(2-fluorophenyl)-1-hydroxy-3,4-dihydroquinolin-2(1H)-one, trifluoroacetate salt] | 129 | 
12 | N[C@H]1Cc2cccc(C(F)(F)F)c2N(O)C1=O [Example 20] |  | 127
13 | N[C@H]1Cc2c(Cl)cccc2N(O)C1=O [Example 22] |  | 45.2
14 | N[C@H]1Cc2cc(-c3ccccc3)ccc2N(O)C1=O [Example 150, (3S)-3-amino-1-hydroxy-6-phenyl-3,4-dihydroquinolin-2(1H)-one, trifluoroacetate salt] | 96.7 | 
15 | N[C@H]1Cc2cc(-c3ccccc3Cl)ccc2N(O)C1=O [Example 154, (3S)-3-amino-6-(2-chlorophenyl)-1-hydroxy-3,4-dihydroquinolin-2(1H)-one, trifluoroacetate salt] | 96.5 | 
16 | COc1ccc2c(c1)N(O)C(=O)C(N)C2 (centres unmarked) [Example 29] |  | 10.5
17 | NC1Cc2ccc(-c3ccc(OC(F)(F)F)cc3)cc2N(O)C1=O (centres unmarked) [Example 61, 3-amino-1-hydroxy-7-[4-(trifluoromethoxy)phenyl]-3,4-dihydroquinolin-2(1H)-one, trifluoroacetate salt] |  | 162
18 | CCc1ccccc1-c1ccc2c(c1)C[C@H](N)C(=O)N2O [Example 149, (3S)-3-amino-6-(2-ethylphenyl)-1-hydroxy-3,4-dihydroquinolin-2(1H)-one, trifluoroacetate salt] | 118 | 
19 | COc1ccc(-c2ccc3c(c2)N(O)C(=O)C(N)C3)cc1C (centres unmarked) [Example 64, 3-amino-1-hydroxy-7-(4-methoxy-3-methylphenyl)-3,4-dihydroquinolin-2(1H)-one, trifluoroacetate salt] |  | 141
20 | N[C@H]1Cc2cc(-c3cc(F)ccc3Cl)ccc2N(O)C1=O [Example 152, (3S)-3-amino-6-(2-chloro-5-fluorophenyl)-1-hydroxy-3,4-dihydroquinolin-2(1H)-one, trifluoroacetate salt] | 94 | 

Second part, the compound after the results:

Row | IC50 (Table 6) [nM] | IC50 (Table 5) [nM] | SMILES
21 | 68.6 |  | NC1Cc2cc(Oc3ccc(C(F)(F)F)cc3)ccc2N(O)C1=O (centres unmarked) [Example 102]
22 | 96.6 |  | Cc1ccc(F)cc1Oc1ccc2c(c1)C[C@H](N)C(=O)N2O [Example 165, (3S)-3-amino-6-(5-fluoro-2-methylphenoxy)-1-hydroxy-3,4-dihydroquinolin-2(1H)-one, trifluoroacetate salt]
23 | 68.1 |  | NC1Cc2cc(Oc3ccc(Cl)cc3)ccc2N(O)C1=O (centres unmarked) [Example 105]
24 | 41.1 |  | N[C@H]1Cc2cccc(C(F)F)c2N(O)C1=O [Example 119]
25 |  | 155 | NC1Cc2ccc(-c3ccc4c(c3)CCO4)cc2N(O)C1=O (centres unmarked) [Example 65, 3-amino-7-(2,3-dihydro-1-benzofuran-5-yl)-1-hydroxy-3,4-dihydroquinolin-2(1H)-one, trifluoroacetate salt]
26 | 54 |  | N[C@H]1Cc2cc(Oc3ccc(F)cc3Cl)ccc2N(O)C1=O [Example 161, (3S)-3-amino-6-(2-chloro-4-fluorophenoxy)-1-hydroxy-3,4-dihydroquinolin-2(1H)-one, trifluoroacetate salt]
27 | 35.1 |  | N[C@H]1Cc2cc(Oc3ccc(Cl)cc3)cnc2N(O)C1=O [Example 124]
28 | 25.5 |  | Cc1nc2c(cc1Cc1ccccc1)C[C@H](N)C(=O)N2O [Example 128]
29 | 60 |  | N[C@H]1Cc2cc(Oc3ccc(Cl)c(Cl)c3)ccc2N(O)C1=O [Example 163, (3S)-3-amino-6-(3,4-dichlorophenoxy)-1-hydroxy-3,4-dihydroquinolin-2(1H)-one, trifluoroacetate salt]
30 | 36.4 |  | NC1Cc2cc(Oc3cc(F)ccc3F)ccc2N(O)C1=O (centres unmarked) [Example 89]
31 | 103 |  | NC1Cc2cc(Oc3ccncc3)ccc2N(O)C1=O (centres unmarked) [Example 100]
32 | 288 |  | N[C@H]1Cc2c(F)ccc(Cl)c2N(O)C1=O [Example 109]
33 | 212 |  | N[C@H]1Cc2ccc3c(c2N(O)C1=O)CCO3 [Example 81]
34 | 49.3 |  | N[C@H]1Cc2cc(C3CCOCC3)ccc2N(O)C1=O [Example 112]
35 | 56.7 |  | NC1Cc2cc(Oc3ccccc3F)ccc2N(O)C1=O (centres unmarked) [Example 107]
36 | 51.3 |  | NC1Cc2cc(Oc3ccccn3)ccc2N(O)C1=O (centres unmarked) [Example 92]
37 | 42.1 |  | N[C@H]1Cc2cc(S(=O)(=O)c3ccccc3)ccc2N(O)C1=O [Example 67, (3S)-3-amino-1-hydroxy-6-(phenylsulfonyl)-3,4-dihydroquinolin-2(1H)-one, hydrochloride salt]
38 | 54.3 |  | N[C@H]1Cc2cc(Oc3cc(F)cc(Cl)c3)ccc2N(O)C1=O [Example 168, (3S)-3-amino-6-(3-chloro-5-fluorophenoxy)-1-hydroxy-3,4-dihydroquinolin-2(1H)-one, trifluoroacetate salt]
39 | 49.1 |  | N#Cc1cccc(Oc2cnc3c(c2)C[C@H](N)C(=O)N3O)c1 [Example 129]
40 | 35.9 |  | NC1Cc2cc(Oc3cccnc3)ccc2N(O)C1=O (centres unmarked) [Example 95]
41 | 41.1 |  | N#Cc1ccccc1Oc1ccc2c(c1)CC(N)C(=O)N2O (centres unmarked) [Example 82]
42 | 49.6 |  | N[C@H]1Cc2cccc(OCC(F)(F)F)c2N(O)C1=O [Example 96]
43 | 49.2 |  | NC1Cc2cc(Oc3cccc(F)c3)ccc2N(O)C1=O (centres unmarked) [Example 106]
44 | 37 |  | N[C@H]1Cc2c(ccc(F)c2F)N(O)C1=O [Example 114]
